Laboratory results: article PMC12165799, “Antimicrobial peptide developed with machine learning sequence optimization targets drug resistant Staphylococcus aureus in mice” (The Journal of Clinical Investigation, 2025)

Assays:
S. aureus MW2 membrane = test: Membrane depolarization, DiBAC4(3); assay type: cell-based, Staphylococcus aureus; details: S. aureus MW2, 32 μg/mL
Method: 466 Membrane depolarization
467 We measured bacterial membrane potential using an established protocol with minor
468 modifications (9). We prepared an exponential phase culture of S. aureus MW2 in fresh TSB
469 medium, washed the culture two times in PBS, and resuspended it in a double volume of PBS. To
470 energize the bacterial cells, we added 25 mM of glucose for 15 mins at 37°C, followed by 500 nM
471 of DiBAC4(3) (bis-(1,3-dibutylbarbituric acid) trimethine oxonol) (Thermo Fisher Scientific, ON,
472 Canada). DiBAC4(3) is a potential-sensitive probe that enters depolarized cells, binds to
474 this bacterial culture per well in a black, clear bottomed 96-well plate (Cat. no. 3904, Corning,
475 NY, USA) and monitored the fluorescence using a SpectraMax i3x (Molecular Devices, CA, USA)
476 for 20 min, with excitation at 485 nm and emission at 520 nm, until the baseline stabilized. Then
477 we added 10 µl of serially diluted peptide solutions and recorded the fluorescence for another 40
478 min. We included triton X-100 (1%) as a positive control.

[1] = HPLC retention time on C18 reverse-phase column; assay type: physicochemical
From the text: Table 1 Physical parameters and minimal inhibitory concentrations of citropin 1.1-derived peptides against S. aureus MW2 | column: rT^D (min)

S. aureus MW2 = test: ATP release assay (luciferase); assay type: cell-based, Staphylococcus aureus; details: 32 μg/mL, 30 minutes
Method: 484 min at room temperature in the dark based on a previously established protocol (8). We added 90
485 µl of the dye/bacteria mixture to 10 μl of serially diluted 10× peptide concentration in black, 96-
486 well plates (Cat. no. 3904, Corning, NY, USA) and incubated the plates for 1 hour at room
487 temperature. We measured the fluorescence with excitation and emission wavelengths of 485 nm
488 and 525 nm, respectively in endpoint assay mode using a SpectraMax i3x (Molecular Devices,
489 CA, USA) fluorescence reader.
490 Propidium iodide-based membrane permeability
491 We used a propidium iodide (Thermo Fisher Scientific, MA, USA) fluorescence-based
492 bacterial permeation assay to establish membrane-oriented interactions with the designed peptides
493 based on a previously established protocol (8). We prepared exponential phase S. aureus MW2
494 bacteria and diluted to OD600 = 0.4 in PBS. We added PI dye (final concentration = 2 µM) to the
495 bacteria in 1:10 serial dilutions in black, 96-well plates (Cat. no. 3904, Corning, NY, USA) and
496 incubated the plates for 1 hour at room temperature. We then measured the fluorescence with an
497 excitation wavelength of 584 nm and an emission wavelength of 620 nm in endpoint assay mode
498 using a SpectraMax i3x (Molecular Devices, CA, USA) fluorescence reader.
501 To determine the ATP leakage potential of the peptides, we employed a luciferase-based […]

[2] = test system: S. aureus VRS1 (VRSA) exponential and persister cells; test: S. aureus persister cell and time-kill assays (VRS1); assay type: cell-based, Staphylococcus aureus; details: 10 × MIC
Method: 305 Minimal inhibitory concentration (MIC) assay
We made serial dilutions of 10×
We determined the MIC using OD600
Accordingly, we added 150 mM NaCl,
319 established protocol (5).
323 aureus VRS1) in PBS. To assess the killing kinetics of CIT-8 in persister cells, we added 1 ml of
324 cell suspension to the wells of a 2-ml deep-well assay block (Cat no. 3960, Corning, NY, USA)
We also included ciprofloxacin (at 10 μg/ml) for S.
326 aureus MW2 and linezolid (100 μg/ml) for S. aureus VRS1 as antibiotic controls. Additionally,
327 we included bithionol (at 10 μg/ml) as a positive control, known for its ability to kill stationary
328 phase persister cells (6). We incubated the plates at 37°C, with shaking at 225 rpm. At specific
329 times (0, 15, 30, 60, and 120 min), we collected 10 μl samples, diluted them serially, and then
330 plated them on tryptic soy agar (TSA) (BD Difco, NJ, USA) plates. We incubated the TSA plates
331 for 18 hours at 37°C for colony counting. We performed these experiments in duplicate. As a
332 comparison, we prepared the exponential cells of S. aureus MW2 and VRS1 in PBS and analyzed
333 their killing kinetics in the same manner as described for persister cells.

H-GLFKVIKKLLKVI-NH2 [CIT-8]
Membrane depolarization, DIBAC4(3) fluorescence (S. aureus MW2 membrane): rapid increase in DIBAC4(3) fluorescence | rT (HPLC retention time) [1]: 22.465 min | ATP leakage, luminescence (S. aureus MW2): increased luminescence levels | Time to eradication of exponential and VRSA persister cells [2]: ≤ 120 min
